Measured values taken from patent publication US7446094B2, “Cytotoxic depsipeptides” (Instituto Biomar S.A., priority 2003, dated 2008).
pIC50: −log10 of the molar value.

How the values were obtained:
[1] = tested on: Hela S3 cells; conditions: from JP 11180997; cited from earlier work
[2] = tested on: human colon tumour (HT-29 cell line) xenografts; test: Human colon tumour xenograft, net tumour growth; format: in vivo, female athymic mice; conditions: for Net Tumour Growth ± S.E.M.: HT-29 xenograft, single iv dose 0.5 mg/kg
From the text: (§1) At different times, three human tumour cell lines MX-1 (breast), HT-29 (colon), and LX-1 (non-small cell lung), respectively, were implanted subcutaneously into separate groups of recipient female athymic mice as a small seedling of approximately 2-3 mm^3. Each tumour type was then allowed to grow inside the animal to reach a group mean size of 100±15 mm^3, at which time tumour-bearing mice were randomized into groups (Staging Day). The Staging Day also coincided with Day 0 for drug dosing.
(§2) The test article was administered as a single intravenous (iv) bolus injection (i.e., QD×1) on the Staging Day (Day 0).
(§3) Tumour burden was determined for all animals throughout the study using a caliper, and the frequency was at least twice per week.
(§4) Protocols and criteria for drug activity were derived from those established by the National Cancer Institute for tumour systems similar to those used in these studies (NIH Publication No. 84-2635, In vivo cancer models 1976-1982). Statistical analysis of tumour volumes for each group of drug treated animals was performed according to the Mann Whitney nonparametric test based on comparisons to the vehicle control cohort within the same experiment.
(§5) Tumour lengths (L) and widths (W) were measured in millimeters (mm) using calipers, recorded, and tumour volume was calculated by the formula: Volume (mm^3)=L×W^2×0.5. Individual values were determined for each tumour-bearing athymic- mouse and specified day of measurement (day D). On the tumour Staging Day (Day 0), the tumour volume of a treated animal (T01) was subtracted from the corresponding tumour volume on each observation day (TD1). This provided the change (Δ) in tumour volume for the said treated athymic mouse (ΔT1=TD1−T01). The change in tumour volumes for each member of the control cohort (ΔC) was calculated in a similar fashion as above.
(§6) At randomization (Day 0) the average volume of the tumour mass was 100±15 mm^3 and the “net tumour growth” is really a difference between the size of the tumour on Day X and that on Day 0. The parameter S.E.M. is commonly used in statistics and stands for standard error of the mean in a distribution of N (size) experimental values.

[3] = tested on: human non-small cell lung tumour (LX-1 cell line) xenografts; test: Human non-small cell lung tumour xenograft, net tumour growth; format: in vivo, female athymic mice; conditions: for Net Tumour Growth ± S.E.M.: LX-1 xenograft
From the text: as §1, §2, §3, §4, §5, §6

[4] = Maximum tolerated dose in mice; conditions: CD-1, mouse, in vivo
[5] = tested on: human breast tumour (MX-1 cell line) xenografts; test: Human breast tumour xenograft, net tumour growth; format: in vivo, female athymic mice; parameters: key to Net Tumour Growth ± S.E.M.: †: High mortality prevented meaningful statistical analysis; conditions: for Net Tumour Growth ± S.E.M.: MX-1 xenograft
From the text: as §1, §2, §3, §4, §5, §6

[6] = tested on: PC-3; test: MTS tetrazolium cytotoxicity assay; format: cell-based; conditions: Homo sapiens, PC-3, 72 h, read-out: Cytotoxic activity (IC50)
From the text: (§7) The finality of these assays is to interrupt the growth of an “in vitro” tumour cell culture by means a continued exhibition of the cells to the sample to be testing. The following human cell lines were used:
(§8) Tetrazolium Assay MTS is based on metabolic reduction of MTS to solubilized formazan crystals by the metabolically active mitochondria of living cells. For this reason, the methodology includes counting of the cell lines based on viability staining to ensure that cell concentrations are corrected to allow for 100% living cells into each well in lieu of Coulter counting or estimated dilutions based on standard growth curves.
(§9) Medium containing drug was removed at the end of the treatment and culture plates rinsed one time with PBS. Afterward, cells were incubated in 200 μl of drug-free medium until 72 hours. After appropriate incubation time 25 μl of MTS+PMS solution was added to each microtiter well and incubated for 4 hours at 37° C. Plates were then removed from the incubator and placed on plate shaker for 5 minutes (covered for protection from light). Optical densities were read at 490 nm on spectrophotometer plate reader. Data was analyzed using Softmax.
(§10) Data is presented as IC50 potencies calculated from 3rd order polynomial regression curves using Microsoft Excel and then manually interpolated.

[7] = tested on: SW 694; test: MTS tetrazolium cytotoxicity assay; format: cell-based; conditions: Homo sapiens, 72 h, read-out: Cytotoxic activity (IC50)
From the text: as §7, §8, §9, §10

[8] = tested on: HT-29; test: MTS tetrazolium cytotoxicity assay; format: cell-based; conditions: Homo sapiens, HT-29, 72 h, read-out: Cytotoxic activity (IC50)
From the text: as §7, §8, §9, §10

[9] = tested on: FADU; test: MTS tetrazolium cytotoxicity assay; format: cell-based; conditions: Homo sapiens, 72 h, read-out: Cytotoxic activity (IC50)
From the text: as §7, §8, §9, §10

[10] = tested on: OSA-FH; test: MTS tetrazolium cytotoxicity assay; format: cell-based; conditions: Homo sapiens, 72 h, read-out: Cytotoxic activity (IC50)
From the text: as §7, §8, §9, §10

[11] = tested on: Y-79; test: MTS tetrazolium cytotoxicity assay; format: cell-based; conditions: Homo sapiens, Y79, 72 h, read-out: Cytotoxic activity (IC50)
From the text: as §7, §8, §9, §10

[12] = tested on: H9; test: MTS tetrazolium cytotoxicity assay; format: cell-based; conditions: Homo sapiens, H9, 72 h, read-out: Cytotoxic activity (IC50)
From the text: as §7, §8, §9, §10

[13] = tested on: MX-1; test: MTS tetrazolium cytotoxicity assay; format: cell-based; conditions: Homo sapiens, MX1, 72 h, read-out: Cytotoxic activity (IC50)
From the text: as §7, §8, §9, §10

[14] = tested on: HL-60; test: MTS tetrazolium cytotoxicity assay; format: cell-based; conditions: Homo sapiens, HL-60, 72 h, read-out: Cytotoxic activity (IC50)
From the text: as §7, §8, §9, §10

[15] = tested on: K562; test: MTS tetrazolium cytotoxicity assay; format: cell-based; conditions: Homo sapiens, K562, 72 h, read-out: Cytotoxic activity (IC50)
From the text: as §7, §8, §9, §10

[16] = tested on: Hs746t; test: MTS tetrazolium cytotoxicity assay; format: cell-based; conditions: Homo sapiens, 72 h, read-out: Cytotoxic activity (IC50)
From the text: as §7, §8, §9, §10

[17] = tested on: SK-N-MC; test: MTS tetrazolium cytotoxicity assay; format: cell-based; conditions: Homo sapiens, 72 h, read-out: Cytotoxic activity (IC50)
From the text: as §7, §8, §9, §10

[18] = tested on: Mel-28; test: MTS tetrazolium cytotoxicity assay; format: cell-based; conditions: Homo sapiens, SK-MEL-28, 72 h, read-out: Cytotoxic activity (IC50)
From the text: as §7, §8, §9, §10

[19] = tested on: SK-OV-3; test: MTS tetrazolium cytotoxicity assay; format: cell-based; conditions: Homo sapiens, SK-OV-3, 72 h, read-out: Cytotoxic activity (IC50)
From the text: as §7, §8, §9, §10

[20] = tested on: 5637; test: MTS tetrazolium cytotoxicity assay; format: cell-based; conditions: Homo sapiens, 72 h, read-out: Cytotoxic activity (IC50)
From the text: as §7, §8, §9, §10

[21] = tested on: MC116; test: MTS tetrazolium cytotoxicity assay; format: cell-based; conditions: Homo sapiens, MC116, 72 h, read-out: Cytotoxic activity (IC50)
From the text: as §7, §8, §9, §10

[22] = tested on: 786-O; test: MTS tetrazolium cytotoxicity assay; format: cell-based; conditions: Homo sapiens, 786-0, 72 h, read-out: Cytotoxic activity (IC50)
From the text: as §7, §8, §9, §10

[23] = tested on: DU-145; test: MTS tetrazolium cytotoxicity assay; format: cell-based; conditions: Homo sapiens, DU-145, 72 h, read-out: Cytotoxic activity (IC50)
From the text: as §7, §8, §9, §10

[24] = tested on: LNCAP; test: MTS tetrazolium cytotoxicity assay; format: cell-based; conditions: Homo sapiens, 72 h, read-out: Cytotoxic activity (IC50)
From the text: as §7, §8, §9, §10

[25] = tested on: SW-579; test: MTS tetrazolium cytotoxicity assay; format: cell-based; conditions: Homo sapiens, SW579, 72 h, read-out: Cytotoxic activity (IC50)
From the text: as §7, §8, §9, §10

[26] = tested on: SK-HEP-1; test: MTS tetrazolium cytotoxicity assay; format: cell-based; conditions: Homo sapiens, SK-HEP1, 72 h, read-out: Cytotoxic activity (IC50)
From the text: as §7, §8, §9, §10

[27] = tested on: BT-474; test: MTS tetrazolium cytotoxicity assay; format: cell-based; conditions: Homo sapiens, BT-474, 72 h, read-out: Cytotoxic activity (IC50)
From the text: as §7, §8, §9, §10

[28] = tested on: NCI-H187; test: MTS tetrazolium cytotoxicity assay; format: cell-based; conditions: Homo sapiens, NCI-H187, 72 h, read-out: Cytotoxic activity (IC50)
From the text: as §7, §8, §9, §10

[29] = tested on: TT; test: MTS tetrazolium cytotoxicity assay; format: cell-based; conditions: Homo sapiens, 72 h, read-out: Cytotoxic activity (IC50)
From the text: as §7, §8, §9, §10

[30] = tested on: A549; test: MTS tetrazolium cytotoxicity assay; format: cell-based; conditions: Homo sapiens, A549, 72 h, read-out: Cytotoxic activity (IC50)
From the text: as §7, §8, §9, §10

[31] = tested on: PANC-1; test: MTS tetrazolium cytotoxicity assay; format: cell-based; conditions: Homo sapiens, PANC-1, 72 h, read-out: Cytotoxic activity (IC50)
From the text: as §7, §8, §9, §10

[32] = tested on: CHSA; test: MTS tetrazolium cytotoxicity assay; format: cell-based; conditions: Homo sapiens, 72 h, read-out: Cytotoxic activity (IC50)
From the text: as §7, §8, §9, §10

[33] = single iv dose 1.0 mg/kg, DAY 3
[34] = single iv dose 1.0 mg/kg, DAY 6
[35] = single iv dose 1.0 mg/kg, DAY 10
[36] = single iv dose 1.5 mg/kg, DAY 3
[37] = single iv dose 1.5 mg/kg, DAY 6
[38] = single iv dose 1.5 mg/kg, DAY 10

## CCC(C)C1NC(=O)c2nc(oc2-c2ccccc2)-c2csc(n2)-c2coc(n2)-c2coc(n2)-c2coc(n2)CNC(=O)C(C(C)C)NC1=O (centres unmarked)
[1]
  pIC50: 7.85

## C=C1NC(=O)C(C(C)C)NC(=O)C(C(C)CC)NC(=O)c2nc(oc2-c2ccccc2)-c2coc(n2)-c2csc(n2)-c2coc(n2)-c2coc1n2 (centres unmarked) [IB-01211]
[2]; DAY 1
  Net Tumour Growth ± S.E.M.: 26 ± 11 mm^3
[2]; DAY 4
  Net Tumour Growth ± S.E.M.: 53 ± 28 mm^3
[2]; DAY 8
  Net Tumour Growth ± S.E.M.: 162 ± 34 mm^3
[2]; colon tumour, dose of 0.14 MTD
  antitumour effect in vivo: not against colon tumour
[3]; [33]
  Net Tumour Growth ± S.E.M.: 68 ± 29 mm^3
[3]; [34]
  Net Tumour Growth ± S.E.M.: 234 ± 11 mm^3
[3]; [35]
  Net Tumour Growth ± S.E.M.: 561 ± 60 mm^3
[3]; [36]
  Net Tumour Growth ± S.E.M.: 11 ± 19 mm^3
[3]; [37]
  Net Tumour Growth ± S.E.M.: 121 ± 51 mm^3
[3]; [38]
  Net Tumour Growth ± S.E.M.: 309 ± 71 mm^3
[3]; human non-small cell lung tumour, dose of 0.43 MTD
  antitumour effect in vivo: significant antitumour effect
[4]
  MTD: 3.5 mg/kg
[5]; [33]
  Net Tumour Growth ± S.E.M.: 5 ± 3 mm^3
[5]; [34]
  Net Tumour Growth ± S.E.M.: 113 ± 62 mm^3
[5]; [35]
  Net Tumour Growth ± S.E.M.: 450 ± 137 mm^3
[5]; [36]
  Net Tumour Growth ± S.E.M.: †
[5]; [37]
  Net Tumour Growth ± S.E.M.: †
[5]; [38]
  Net Tumour Growth ± S.E.M.: †
[5]; breast tumour, dose of 0.29 MTD
  antitumour effect in vivo: trend to significance
[6]
  pIC50: 6.21
[7]
  pIC50: 6.14
[8]
  pIC50: 6.09
[9]
  pIC50: 6.18
[10]
  pIC50: 6.14
[11]
  pIC50: 7.03
[12]
  pIC50: 6.74
[13]
  pIC50: 6.06
[14]
  pIC50: 6.85
[15]
  pIC50: 6.20
[16]
  pIC50: 6.16
[17]
  pIC50: 6.27
[18]
  pIC50: 6.29
[19]
  pIC50: 6.02
[20]
  pIC50: 6.47
[21]
  pIC50: 5.47
[22]
  pIC50: 6.16
[23]
  pIC50: 6.32
[24]
  pIC50: 6.19
[25]
  pIC50: 6.34
[26]
  pIC50: 6.18
[27]
  pIC50: 6.27
[28]
  pIC50: 7.53
[29]
  pIC50: 5.36
[30]
  pIC50: 6.04
[31]
  pIC50: 6.37
[32]
  pIC50: 6.45
